The structures appear in SMILES notation. Entries after “also recorded” stand apart in the source; their conditions may differ.

Series [1] deals with MCF-7 cells. Put plainly: MCF7 7 day proliferation assay in the presence of 0.1 nM E2 (Hoechst DNA content). The series is classed as cell-based. The settings on record: for IC50: Homo sapiens, MCF7, 168 h, read-out: IC50, MCF7 proliferation.
Series [2] relates to MCF-7 cells. Put plainly: MCF7 7 day proliferation assay in the presence of 20 nM insulin (Hoechst DNA content). The series is classed as cell-based. The note with it: Homo sapiens, MCF7, 168 h, read-out: IC50, MCF7 insulin driven proliferation.
Series [3] has as its system MCF7:WS8. Put plainly: Cell viability of MCF7:WS8, fluorescent DNA quantitation. The settings on record: MCF7:WS8 cells, day 4, total DNA; for IC50: 96 h, read-out: MCF-7WS8 IC50. The series is classed as cell-based.
Series [4] relates to MCF7:5C. Put plainly: Cell viability of MCF7:5C (tamoxifen resistant), fluorescent DNA quantitation. The format is cell-based. The note with it: 144 h, read-out: MCF-7:5C IC50.
The subject of series [5] is tamoxifen-resistant (TamR) xenograft tumors. Put plainly: Tamoxifen-resistant (TamR) xenograft tumors, tumor volume. The format is in vivo. The note with it: 30 mg/kg qd and 100 mg/kg qd, approximately 70 days, FIG. 12B.
In series [6] the test system is LTED xenograft tumors. Put plainly: LTED xenograft tumors, model of aromatase inhibitor resistance. The format is in vivo, OVX nu/nu (ovariectomy nude) mice. The settings on record: Compound 20 5, 10, 30 or 100 mg/kg, 30 days of treatment, FIG. 13.
Series [7] has as its system estrogen-receptor positive cell. Put plainly: Estrogen-receptor positive cell proliferation (summary statement). The format is cell-based.
In series [8] the test system is estrogen-receptor negative cell. Put plainly: Estrogen-receptor negative cell proliferation (summary statement). The series is classed as cell-based.
Series [9] is described as follows: Oral bioavailability (summary statement). The settings on record: in vivo.
Series [10] concerns the target hERG (Homo sapiens, UniProt Q12809). Put plainly: hERG inhibition (summary statement).
Series [11] in a line: Glucuronidation in gut intestinal mucosa and liver S9 fraction. The format is in vitro ADME. The note with it: gut intestinal mucosa and human S9 fraction from the liver.
Series [12] has as its target T1, estrogen receptor (ER) (Homo sapiens, UniProt P03372).
T1 sequence (P03372 1-595): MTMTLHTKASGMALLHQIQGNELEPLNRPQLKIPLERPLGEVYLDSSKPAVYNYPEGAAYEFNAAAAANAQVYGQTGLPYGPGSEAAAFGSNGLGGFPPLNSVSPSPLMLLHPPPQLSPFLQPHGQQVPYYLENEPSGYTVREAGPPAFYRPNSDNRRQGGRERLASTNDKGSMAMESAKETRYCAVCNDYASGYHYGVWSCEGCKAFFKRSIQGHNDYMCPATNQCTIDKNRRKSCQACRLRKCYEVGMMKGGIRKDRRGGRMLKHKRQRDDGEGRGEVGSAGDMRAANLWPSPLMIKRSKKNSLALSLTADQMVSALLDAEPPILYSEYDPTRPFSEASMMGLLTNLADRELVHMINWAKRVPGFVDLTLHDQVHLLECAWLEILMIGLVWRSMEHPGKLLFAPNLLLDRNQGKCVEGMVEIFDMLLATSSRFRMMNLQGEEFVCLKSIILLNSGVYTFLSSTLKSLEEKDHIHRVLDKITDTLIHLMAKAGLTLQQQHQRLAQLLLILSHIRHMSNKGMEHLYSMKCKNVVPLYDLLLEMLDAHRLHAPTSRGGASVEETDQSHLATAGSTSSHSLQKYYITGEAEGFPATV
The settings on record: MCF7 cells, presence or absence of proteasome pathway inhibitor MG132, FIG. 4.

Sequence of hERG (Q12809 whole entry): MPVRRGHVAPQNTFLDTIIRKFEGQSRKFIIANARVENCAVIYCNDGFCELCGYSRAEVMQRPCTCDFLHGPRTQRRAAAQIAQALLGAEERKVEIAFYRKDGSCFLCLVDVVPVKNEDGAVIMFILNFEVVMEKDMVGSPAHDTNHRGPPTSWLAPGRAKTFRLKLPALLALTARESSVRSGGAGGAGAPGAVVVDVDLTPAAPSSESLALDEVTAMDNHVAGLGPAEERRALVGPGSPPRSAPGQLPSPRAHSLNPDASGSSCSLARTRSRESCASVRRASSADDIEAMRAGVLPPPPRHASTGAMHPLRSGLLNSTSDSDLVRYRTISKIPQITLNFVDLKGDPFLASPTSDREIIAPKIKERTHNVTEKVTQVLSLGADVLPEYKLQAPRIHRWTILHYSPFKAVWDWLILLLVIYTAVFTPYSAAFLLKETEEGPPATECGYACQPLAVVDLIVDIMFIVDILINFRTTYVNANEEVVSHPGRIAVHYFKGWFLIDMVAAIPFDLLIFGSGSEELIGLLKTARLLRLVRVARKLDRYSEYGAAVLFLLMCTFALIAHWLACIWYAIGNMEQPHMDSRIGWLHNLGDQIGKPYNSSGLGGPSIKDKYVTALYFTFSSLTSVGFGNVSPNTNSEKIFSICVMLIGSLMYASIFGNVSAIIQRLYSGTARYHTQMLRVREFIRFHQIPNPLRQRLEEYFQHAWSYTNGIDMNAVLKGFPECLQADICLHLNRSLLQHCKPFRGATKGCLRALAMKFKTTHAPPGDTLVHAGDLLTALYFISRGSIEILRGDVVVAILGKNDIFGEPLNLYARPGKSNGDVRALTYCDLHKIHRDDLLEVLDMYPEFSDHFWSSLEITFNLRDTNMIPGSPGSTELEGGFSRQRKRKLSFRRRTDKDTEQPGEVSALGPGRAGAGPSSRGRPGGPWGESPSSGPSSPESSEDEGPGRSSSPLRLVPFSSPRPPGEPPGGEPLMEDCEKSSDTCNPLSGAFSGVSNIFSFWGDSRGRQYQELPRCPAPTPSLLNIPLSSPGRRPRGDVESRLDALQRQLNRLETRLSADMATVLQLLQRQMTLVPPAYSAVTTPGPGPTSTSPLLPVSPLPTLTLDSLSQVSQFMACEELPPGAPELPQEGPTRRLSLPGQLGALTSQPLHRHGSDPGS

As for `CC/C(=C(\c1ccc(O)cc1)c1ccc(OCCN(C)C)cc1)c1ccccc1` [4-hydroxytamoxifen], in series [1], the IC50 came out at 3.46 nM.

For the compound `C[C@@H]1Cc2c([nH]c3ccccc23)[C@@H](c2c(F)cc(/C=C/C(=O)O)cc2F)N1CC(C)(C)F` [AZD9496], the values for the IC50 in [1] and in series [2] were 0.04 nM and 0.002 nM, respectively.

`O=C(O)/C=C/c1ccc(Oc2c(C(=O)c3ccc(O)cc3)sc3cc(O)ccc23)cc1` [Compound 2, (E)-3-(4-((6-Hydroxy-2-(4-hydroxybenzoyl)benzo[b]thiophen-3-yl)oxy)phenyl) acrylic acid]: the “MCF-7WS8 IC50 (nM)” value in series [3] is given as “No Inhiibition”.

In the case of `Cc1cc(F)ccc1C(=O)c1sc2cc(O)ccc2c1Oc1c(F)cc(/C=C/C(=O)O)cc1F` [Compound 14, (E)-3-(3,5-Difluoro-4-((2-(4-fluoro-2-methylbenzoyl)-6-hydroxybenzo[b]thiophen-3-yl)oxy)phenyl) acrylic acid], the IC50 in series [4] and in series [3] was more than 10 nM each time.

For `Cc1cc(F)ccc1C(=O)c1sc2cc(O)ccc2c1Oc1ccc(/C=C/C(=O)O)cc1F` [Compound 15, (E)-3-(3-Fluoro-4-((2-(4-fluoro-2-methylbenzoyl)-6-hydroxybenzo[b]thiophen-3-yl)oxy)phenyl) acrylic acid], the IC50 in series [4] and in series [3] was less than 10 nM in each case.

Take `Cc1cc(F)ccc1C(F)(F)c1sc2cc(O)ccc2c1Oc1ccc(/C=C/C(=O)O)cc1` [Compound 16, (E)-3-(4-((2-(Difluoro(4-fluoro-2-methylphenyl)methyl)-6-hydroxybenzo[b]thiophen-3-yl)oxy)phenyl)acrylic acid]: the IC50 in series [4] and in series [3] was less than 100 nM each time.

Take `Cc1cc(F)ccc1C1(c2sc3cc(O)ccc3c2Oc2ccc(/C=C/C(=O)O)cc2)CC1` [Compound 17, (E)-3-(4-((2-(1-(4-Fluoro-2-methylphenyl)cyclopropyl)-6-hydroxybenzo[b]thiophen-3-yl)oxy)phenyl) acrylic acid]: the IC50 in series [4] and in [3] was less than 100 nM in each case.

In the case of `Cc1cc(F)ccc1C(=O)c1sc2cc(O)ccc2c1Oc1ccc(NC(=O)C(=O)O)cc1` [Compound 18, 2-((4-((2-(4-Fluoro-2-methylbenzoyl)-6-hydroxybenzo[b]thiophen-3-yl)oxy)phenyl)amino)-2-oxoacetic acid], the “MCF-7WS8 IC50 (nM)” value in [3] is “No Inhibition”.

On to `Cc1ccc(C(=O)c2sc3cc(O)ccc3c2Oc2ccc(NC(=O)C(=O)O)cc2)c(C)c1` [Compound 19, 2-((4-((2-(2,4-Dimethylbenzoyl)-6-hydroxybenzo[b]thiophen-3-yl)oxy)phenyl)amino)-2-oxoacetic acid], for which the IC50 in [4] was more than 10 nM. Besides, the “MCF-7WS8 IC50 (nM)” value in series [3] is “No Inhibition”.

Regarding `Cc1cc(F)cc(C)c1C(=O)c1sc2cc(O)ccc2c1Oc1ccc(/C=C/C(=O)O)cc1` [Compound 20, (E)-3-(4-((2-(4-Fluoro-2,6-dimethylbenzoyl)-6-hydroxybenzo[b]thiophen-3-yl)oxy)phenyl) acrylic acid], in series [1] (0.1 nM E2, 7 day proliferation), the “times more potent than fulvestrant” value is recorded as approximately 4 times. The IC50 was 0.26 nM in series [1] (0.1 nM estradiol (E2), 7 day); 0.028 nM in [2] (20 nM insulin, 7 day); less than 1 nM in series [7]; more than 10 nM in [8]; more than 10000 nM in series [10]. Further, the “tumor volume, Compound 20 alone” value in [5] is given as “effective in decreasing tumor volume”. The tumor volume entry in series [6] is reported as “decrease in tumor volume correlated with the dose level; also recorded: effective in decreasing tumor volume at all doses”. In addition, the oral bioavailability entry in series [9] is on record as “good”. Moreover, the glucuronidation entry in series [11] is recorded as “observed”. In series [12], the “degradation of the estrogen receptor (ESR1a) with or without MG132” value is on record as “dependent on the absence of MG132”.

Consider `CC/C(=C(/c1ccc(/C=C/C(=O)O)cc1)c1ccc2[nH]ncc2c1)c1ccc(F)cc1Cl` [GDC-0810], for which the IC50 in series [1] (0.1 nM estradiol (E2), 7 day) stood at 1.84 nM; in [2] (20 nM insulin, 7 day), 0.055 nM.

As to `CC/C(=C(\c1ccccc1)c1ccc(/C=C/C(=O)O)cc1)c1ccccc1` [GW-5638, Etacstil], the IC50 in series [1] (0.1 nM estradiol (E2), 7 day) amounted to 946 nM.

For the compound `CC/C(=C(\c1ccccc1)c1ccc(/C=C/C(=O)O)cc1)c1ccc(O)cc1` [GW-7604], the IC50 in series [1] (0.1 nM estradiol (E2), 7 day) amounted to 1.81 nM.

Regarding `C[C@]12C[C@H](c3ccc(OCCCCCS(=O)(=O)CCCC(F)(F)C(F)(F)F)cc3)[C@@H]3c4ccc(O)cc4CC[C@H]3[C@@H]1CC[C@@H]2O` [RU 58668], the IC50 in [1] (0.1 nM estradiol (E2), 7 day) worked out at 0.052 nM; in [2] (20 nM insulin, 7 day), 0.013 nM.

For the compound `Cc1c(-c2ccc(O)cc2)n(Cc2ccc(OCCN3CCCCCC3)cc2)c2ccc(O)cc12` [bazedoxifene], in [1], the IC50 amounted to 72 nM.

In the case of `C[C@]12CC[C@@H]3c4ccc(O)cc4C[C@@H](CCCCCCCCC[S+]([O-])CCCC(F)(F)C(F)(F)F)[C@H]3[C@@H]1CC[C@@H]2O` (stereo partly shown) [fulvestrant], the IC50 in series [1] is 0.86 nM; in [2] it was 0.149 nM.

Turning to `Oc1ccc2c(c1)CC[C@H](c1ccccc1)[C@@H]2c1ccc(OCCN2CCCC2)cc1` [lasofoxofene, Lasofoxifene], in series [1] (0.1 nM estradiol (E2), 7 day), the IC50 stood at 0.17 nM.

For `O=C(c1ccc(OCCN2CCCCC2)cc1)c1c(-c2ccc(O)cc2)sc2cc(O)ccc12` [raloxifene], the IC50 in [1] was found to be 0.77 nM.

The record behind these values is patent US11364222B2, “Combination therapy for treatment of cancer” (G1 Therapeutics, Inc., priority 2017, dated 2022).
